Measured values: US8318808B2, “Zn2+chelating motif-tethered short-chain fatty acids as a novel class of histone deacetylase inhibitors” (The Ohio State University Research Foundation, priority 2007, dated 2012)
Like-named read-outs stand apart in the source and are kept apart here. Each block holds one compound with its values, some of them ahead of it.

Assays:
[1] = tested on: PC-3 xenograft tumors; assay: Growth of established subcutaneous PC-3 xenograft tumors; settings: for reduction in the growth of the tumors vs vehicle-treated control: 50 mg/kg/day; for suppression of growth of established PC-3 tumors: oral route, 50 and 100 mg/kg/day (either dose)
Description: In the in vivo experiment, PC-3 cells, suspended in equal volumes of serum-free medium and Matrigel basement membrane matrix, were injected subcutaneously into the flanks of 5-7 week old male NCr athymic nude mice (nu/nu) (0.5×10^6 cells/0.1 ml/mouse). […] The control group received p.o. or i.p. vehicle only (0.1% methylcellulose/0.05% Tween 80 in water and DMSO, respectively). Treatments continued until the mean tumor volume of the control group reached approximately 1,500 mm^3. Tumors were measured every week using Vernier calipers and their volumes calculated using a standard formula: width^2×length×0.52.

[2] = Toxicity, body weights and pathological evaluation of treated tumor-bearing mice; type: in vivo, NCr athymic nude mice (nu/nu); settings: for body weights: measured weekly, compound 42 or 44 oral 50 and 100 mg/kg/day, SAHA i.p. 50 mg/kg/day
Description: At the conclusion of the study, complete pathological evaluation of one mouse from each treatment group was performed by board-certified veterinary pathologists at The Ohio State University College of Veterinary Medicine, which included clinical pathology (hematology, serum chemistries) and complete necropsy (gross and microscopic examination of at least 27 different tissues and organs). […] Hematological parameters were within normal limits except for a neutrophilia, which was observed only in mice from both vehicle-treated control groups and the SAHA- and compound 44 (50 mg/kg)-treated groups. Serum chemistry values were consistent with mild dehydration in the vehicle-treated mice, but were within normal limits for all other mice.

[3] = tested on: acetylation of histone H-3 in PC-3 xenograft tumors; assay: Western blot of acetylated histone H3 in PC-3 xenograft tumor homogenates; type: in vivo, mice; settings: 28 days
[4] = tested on: phospho-Akt in PC-3 cells (PTEN-/-); assay: Activation status of Akt in PC-3 cells; type: cell-based; settings: comparable concentrations
Description: The effect of these agents on the activation status of Akt in PC-3 cells (PTEN^−/−) was also examined. Akt is constitutively activated in PC-3 cells due to lack of functional PTEN, which contributes to the androgen independency and chemotherapeutic resistance of these cells.

[5] = tested on: acetylated histones H3 and H4 and p21WAF/CIP1 in DU-145 cells; assay: Western blot of histone acetylation and p21WAF/CIP1 expression in DU-145 cells; type: cell-based; settings: for levels of acetylated histones H3 and H4, and p21WAF/CIP1: 10% FBS, HTPB 0.5-[…], TSA 0.25-0.5 μM, phenylbutyrate 1-5 mM
Description: Western blot analysis. DU-145 cells (1×10^6) treated with HTPB at the indicated concentrations in 10% FBS-supplemented RPMI 1640 medium for 24 h were collected, and sonicated. Protein concentrations of the lysates were determined by using a Bradford protein assay kit (Bio-Rad, Hercules, Calif.); equivalent amounts of proteins from each lysate were resolved in 10% SDS-polyacrylamide gel, and then transferred onto Immobilon-nitrocellulose membranes (Millipore, Bellerica, Mass.) in a semi-dry transfer cell. The transblotted membrane was washed twice with Tris-buffered saline (TBS) containing 0.1% Tween 20 (TBST). After blocking with TBST containing 5% nonfat milk for 40 min, the membrane was incubated with the primary antibody (1:1000 dilution) in TBST-1% nonfat milk at 4° C. overnight. After treatment with the primary antibody, the membrane was washed three times with TBST for a total of 15 min, followed by goat anti-rabbit or anti-mouse IgG-horseradish peroxidase conjugates (diluted 1:3000) for 1 h at room temperature and wash three times with TBST for a total of 1 h. The immunoblots were visualized by enhanced chemiluminescence.
DU-145 cells were exposed to HTPB at 0.5, 1, 2.5 μM, TSA at 0.25 and 0.5 μM, or phenylbutyrate at 1, 2.5, and 5 mM in 10% FBS-supplemented RPMI 1640 medium for 24 h. […] The effect of 1 μM HTPB on these biomarkers approximated that of 0.25 μM TSA, or 2.5 mM phenylbutyrate.

[6] = molecular target: histone deacetylase (HDAC) activity of DU-145 nuclear extract; assay: In vitro HDAC assay (histone deacetylase assay kit, [3H]-acetyl histone H4 peptide); type: biochemical
Description: In vitro HDAC assay. HDAC activity was analyzed by using a histone deacetylase assay kit (Upstate Biotechnology, Lake Placid, N.Y.) by following the manufacturer's instruction with slight modifications. […] The release of [^3 H]-acetate into the supernatant was measured to calculate the HDAC activity. Sodium butyrate (0.25-1 mM) was used as a positive control.

[7] = tested on: DU-145 cells; assay: Apoptosis detection by Cell Death ELISA (nucleosomal DNA); type: cell-based
Description: Apoptosis Detection by An Enzyme-Linked Immunosorbent Assay (ELISA). Induction of apoptosis was assessed by using a Cell Death ELISA (Roche Diagnostics, Mannheim, Germany) by following the manufacturer's instruction. This test is based on the quantitative determination of cytoplasmic histone-associated DNA fragments in the form of mononucleosomes and oligonucleosomes after induced apoptotic death. In brief, 1×10^6 DU-145 cells were cultured in a T-75 flask 24 h prior to the experiment. Cells were treated with HTPB at the indicated concentrations in 10% FBS-supplemented RPMI 1640 medium. Both floating and adherent cells were collected, cell lysates equivalent to 2×10^3 cells were used in the ELISA.

[8] = tested on: DU-145 cells; assay: Cell viability assay (MTT); type: cell-based; settings: Homo sapiens, 10% FBS-supplemented RPMI-1640, read-out: IC50 in growth inhibition
Description: Cell viability assay. The effect of HTPB on cell viability was assessed by the MTT {[3-(4,5-dimethylthiazol-2-yl)-2,5-diphenyl-2 H-tetrazolium bromide]} assay in 96-well, flat-bottomed plates, in which 4,000 DU-145 cells/well were seeded. Cells were exposed to HTPB at the indicated concentrations in 10% FBS-supplemented RPMI-1640 medium at 37° C. in 5% CO2 for the indicated time. The medium was removed and replaced by 150 μl of 0.5 mg/ml of MTT in RPMI-1640 medium, and cells were incubated in the CO2 incubator at 37° C. for 2 hours. Supernatants were removed from the wells, and the reduced MTT dye was solubilized with 200 μl/well DMSO. Absorbance was determined on a plate reader at 570 nm. Each treatment was repeated in six wells.

[9] = tested on: chronic lymphocytic leukemia (TLC-1 transgenic mouse model); assay: Pilot in vivo study in TLC-1 transgenic mouse model; settings: 100 mg/kg oral gavage, 5 days on/two days off for 4 weeks
[10] = tested on: ERKs; assay: Phosphorylation level of ERKs in PC-3 cells; type: cell-based
Description: (§1) This dephosphorylating effect, however, is kinase-specific.

[11] = tested on: JNK; assay: Phosphorylation level of JNK in PC-3 cells; type: cell-based
Description: as §1

[12] = tested on: FAK (focal adhesion kinase); assay: Phosphorylation level of FAK in PC-3 cells; type: cell-based
Description: as §1

[13] = tested on: p38; assay: Phosphorylation level of p38 in PC-3 cells; type: cell-based
Description: as §1

[14] = tested on: 60 cell lines; assay: Sixty-cell line screening by the NCI Developmental Therapeutics Program; type: cell-based; settings: average against all 60 cell lines; read-out: average GI50 (50% inhibition of cell growth)
[15] = tested on: PC-3 cells; assay: cells; settings: Homo sapiens, PC-3, 72 h, read-out: IC50, PC-3 cell proliferation
[16] = i.p., 50 mg/kg/day, one mouse per group
[17] = DU-145 nuclear extract, read-out: HDAC inhibition IC50
[18] = DU-145 nuclear extract, running text, read-out: HDAC inhibition IC50
[19] = Table 1, representative phenylbutyrate-based HDAC inhibitors, read-out: IC50
[20] = parent short-chain fatty acid, read-out: HDAC inhibition IC50

Compound: O=C(CCCCCCC(=O)Nc1ccccc1)NO [SAHA, suberoylanilide hydroxamic acid, reference compound]
reduction in the growth of the tumors vs vehicle-treated control ([1]; i.p.): 69.9%
gross pathologic abnormalities at necropsy [2, 16]: small adhesions in the peritoneum
hematological parameters [2, 16]: neutrophilia
body weights [2]: stable throughout the study
acetylation level of histone H3 in PC-3 tumors ([3]; i.p., 50 mg/kg/day): significant increase
effect on phospho-Akt [4]: no appreciable effect

Compound: CC(/C=C/C(=O)NO)=C\[C@@H](C)C(=O)c1ccc(N(C)C)cc1 [TSA, trichostatin A]
concentration with approximately equal effect on acetylated histones H3/H4 and p21WAF/CIP1 ([5]; 24 h): 0.25 µM
levels of acetylated histones H3 and H4, and p21WAF/CIP1 ([5]; 24 h): elevated levels

Compound: CCCC(CCC)C(=O)Nc1ccc(CCC(=O)NO)cc1 [compound 8]
IC50 [6, 17]: 5000 nM

Compound: CC(C)C(C(=O)Nc1ccc(C(=O)NO)cc1)c1ccccc1 (stereo not drawn) [compound 42, N-Hydroxy-4-(3-methyl-2-phenyl-butyrylamino)-benzamide]
survival [9]: trend toward improved survival
toxicity [9]: no notable toxicity
oral bioavailability ([1]; mouse, in vivo, po): orally bioavailable
suppression of growth of established PC-3 tumors [1]: effective
reduction in the growth of the tumors vs vehicle-treated control ([1]; oral): 70.4%
reduction in PC-3 tumor growth ([1]; oral, 100 mg/kg/day): 91.7%
phosphorylation level of ERKs [10]: diminished in a dose-dependent manner
toxicity in tumor-bearing mice ([2]; 28-day course at 50 or 100 mg/kg/day): no demonstrable toxicity
body weights [2]: stable throughout the study
overt toxicity (body weights and pathological examination) ([2]; oral, 100 mg/kg/day): absence of overt toxicity
phosphorylation level of JNK [11]: remained unaffected
phosphorylation level of FAK [12]: diminished in a dose-dependent manner
acetylation level of histone H3 in PC-3 tumors ([3]; oral, 50 or 100 mg/kg/day): significant increase
phosphorylation level of p38 [13]: remained unaffected
GI50 [14]: 200 nM
IC50 [15]: 600 nM

Compound: CC(C)(CCc1ccccc1)C(=O)Nc1ccc(C(=O)NO)cc1 [compound 44, 4-(2,2-Dimethyl-4-phenyl-butyrylamino)-N-hydroxy-benzamide]
suppression of growth of established PC-3 tumors [1]: effective
IC50 [6, 18]: 32 nM
body weights [2]: stable throughout the study
hematological parameters ([2]; oral, 50 mg/kg, one mouse per group): neutrophilia
IC50 [15]: 800 nM

Continued, in another order:

IC50 [6, 17]: 44 nM
IC50 [6, 18]: 44 nM
IC50 [6, 19]: 44 nM
IC50 [8]: 500 to 1000 nM
Compound: O=C(CCCc1ccccc1)Nc1ccc(C(=O)NO)cc1 [compound 19, N-Hydroxy-4-(4-phenylbutyrylamino)-benzamide]
drug concentration above which extensive apoptosis occurred ([7]; 24 h): exceeded 1 μM
apoptosis (DNA fragmentation) ([7]; 24 h exposure): sensitized DU-145 cells to apoptosis in a dose-dependent manner
concentration causing hyperacetylation of histones H-3 and H-4 (as low as) [5]: ≤ 0.5 µM
concentration at which p21WAF/CIP1 level increased substantially (as low as) ([5]; 24 h): ≤ 0.5 µM
concentration with approximately equal effect on acetylated histones H3/H4 and p21WAF/CIP1 ([5]; 24 h): 1 µM
levels of acetylated histones H3 and H4, and p21WAF/CIP1 ([5]; 24 h): elevated levels

IC50 [6, 17]: 400 nM
drop in HDAC inhibitory potency when hydroxamate of compound 19 is replaced by phenylenediamine ([6]; relative to compound 19): 10 fold
Compound: Nc1ccccc1NC(=O)c1ccc(NC(=O)CCCc2ccccc2)cc1 [compound 55, N-(2-Amino-phenyl)-4-(4-phenyl-butyrylamino)-benzamide]

IC50 [6, 19]: 38 nM
Compound: CC[C@@H](C(=O)Nc1ccc(C(=O)NO)cc1)c1ccccc1 [compound 61, N-hydroxy-4-[2-(R)-phenylbutyrylamino]-benzamide]

IC50 [6, 20]: 400000 nM
Compound: CCCC(CCC)C(=O)O [valproic acid, reference compound]

IC50 [6, 20]: 400000 nM
Compound: phenylbutyrate
concentration required for the same effects on histone acetylation and p21WAF/CIP1 expression [5]: at least 2.5 mM
concentration with approximately equal effect on acetylated histones H3/H4 and p21WAF/CIP1 ([5]; 24 h): 2500 µM
levels of acetylated histones H3 and H4, and p21WAF/CIP1 ([5]; 24 h): elevated levels
